Test results taken from paper PMC1082716, “Blockade of chemokine-induced signalling inhibits CCR5-dependent HIV infection in vitro without blocking gp120/CCR5 interaction” (Retrovirology, 2005).
Entries after “also recorded” stand apart in the source; their conditions may differ.

Assays:
HIV strain MN = assay: HIV (MN) infection of THP-1 cells, p24gag immunofluorescence; format: cell-based, HIV-1; details: Peptide 3 100 μM
Procedure: However, it was possible to assess HIV infectivity of THP-1 cells using high sensitivity immunofluorescent detection of p24^gag. THP-1 cells were differentiated with hydrocortisone and PMA, then treated with TNFα, resulting in adherent monolayers on glass chamber slides. The THP-1 cells were then treated with either Peptide 3 (100 μM), MIP1α (100 ng/ml) or SDF1α (100 ng/ml) as for the Jurkat cells. THP-1 cells were infected with HIV strain MN at a concentration previously validated to produce easily detectable infection and grown for 72 h prior to fixation and staining for p24^gag. In contrast to the findings with HIV strain IIIb infection of Jurkat T cells, Peptide 3 inhibited infection of THP-1 cells by more than 80% (Fig 3c), very similar to the effect of MIP1α.
THP-1 cells were differentiated prior to infection with hydrocortisone and PMA in 8-well chamber slides. Sixteen hours prior to infection, TNFα was added (100 ng/ml). Twelve hours later, the medium was aspirated and replaced with fresh medium containing the test peptides or chemokines as appropriate. After a further four hours, virus from the frozen stocks was adeed to the cells, which were the processed for immunofluoresence between 28 h and 72 h after infection.
Jurkat cells following HIV infection were attached to 8-well chamber slides (Becton-Dickinson) by spinning the slides using a plate rotor in a Labofuge centrifuge (Heraeus) at 3,000 × g for 5 minutes. Attached Jurkat cells or THP-1 cells were then fixed by dipping the slides into ice-cold 70% ethanol for 90 seconds. Non-specific binding was blocked by incubation with 3% fatty acid-free BSA in TBS for 1 hour at room temprature. Cells were incubated with the mouse monoclonal anti-HIV-1 p24^gag antibody EH12E1 (ref 38;AIDS Reagent Program, NIBSC) at 10 μg/ml in 3% BSA in TBS at room temperature overnight. Unbound antibody was removed with 3 × 3 min washes in PBS, and bound antibody was then fixed to the slide by incubation with 3.8% phosphate buffered formalin pH7.2 for 10 mins at room temperature, followed by 3 further 3 min washes in PBS. Bound antibody was visualised using donkey anti-mouse IgG FITC conjugate (715-095-150; Jackson Immunoresearch) at 30 μg/ml in 3% BSA/TBS + 1 ng/ml Hoescht 33342 for 6 hours at room temperature. Twelve fields of view (100× magnification) were captured from each well of the chamber slide using an Olympus Provis AX electronic microscope connected to a Power Macintosh 8500, running OpenLab image analysis software (Improvision), under both FITC illumination conditions (NIBA filter block; λex = 470–490 nm, dichroic mirror = 505 nm, λem = 515–550 nm) and UV illumination conditions (Chroma 31000; λex = 340–380 nm, dichroic mirror = 400 nm, λem = 435–485 nm). Images were acquired with a Hamamatsu C4742-05 monochrome digital camera with 10-bit depth in a 1280-1024 pixel field connected to a DIG Snapper frame grabber. The exposure time, amplifier gain and offset values were controlled by the OpenLab software and were held constant throughout the experiment. A background (an image captured without a slide under the objective) was digitally subtracted from every image. A threshold was then applied to each image which was the lowest threhold that detected <1% of the pixels of an image of uninfected cells stained under identical conditions. The number of objects exceeding this threshold in each field of view were counted. […]

HIV (IIIb) = HIV (IIIb) replication in Jurkat T-cells, supernatant reverse transcriptase activity; format: cell-based; details: HIV-1 IIIb 10^6 TCID50; Peptide 3 100 μM; two weeks; six separate experiments
Procedure: HIV infection of Jurkat T-cells using the laboratory-adapted T-tropic isolate IIIb was monitored using two different assays. Firstly, Jurkat T-cells in 96-well plates were pre-treated with either Peptide 3, vehicle (as a negative control) or SDF1α (as a positive control) for 4 hours, then exposed to HIV virus (10^6 TCID50) and pulsed at 2–3 day intervals with Peptide 3, SDF1α or medium alone as appropriate. After two weeks in culture, the extent of viral infection was assayed by measuring the reverse transcriptase activity in the supernatant, as a measure of viral replication in the culture In six separate experiments, Peptide 3 (100 μM) had no effect on virus replication following HIV exposure (Fig 3a), while SDF1α inhibited reverse transcriptase activity by an average of 75%. No effect was seen on cell viability under any of the treatment conditions.
HIV-1 stocks were prepared in the following manner. HIV-1 IIIb (provided by the MRC AIDS Reagent Programme) was used to infect Jurkat T cells and the progression of infection was monitored using the reverse transcriptase assay for 10–14 days. […] Stocks of HIV-1 MN strain were prepared in a similar manner, except that H9 T cells were used and the progression of infection was monitored by immunofluoresence (because of the low RT activity) in this strain. […]

CXCR4 = target: T1, CXCR4 (Homo sapiens, UniProt P61073); assay: Specific binding of biotinylated gp120:V3(IIIb) peptide to Jurkat cells; details: 100 μM biotinylated gp120:V3(IIIb); various concentrations of inhibitor; 10^6 cells in 100 μl, 4°C; triplicate
T1 construct: CXCR4, which is expressed on both THP-1 and Jurkat cells, but at higher levels on the T-cell line; endogenous in cells; host or cells: Jurkat T-cells (whole cells, 10^6 per well, 4°C)
T1 sequence (P61073 whole entry): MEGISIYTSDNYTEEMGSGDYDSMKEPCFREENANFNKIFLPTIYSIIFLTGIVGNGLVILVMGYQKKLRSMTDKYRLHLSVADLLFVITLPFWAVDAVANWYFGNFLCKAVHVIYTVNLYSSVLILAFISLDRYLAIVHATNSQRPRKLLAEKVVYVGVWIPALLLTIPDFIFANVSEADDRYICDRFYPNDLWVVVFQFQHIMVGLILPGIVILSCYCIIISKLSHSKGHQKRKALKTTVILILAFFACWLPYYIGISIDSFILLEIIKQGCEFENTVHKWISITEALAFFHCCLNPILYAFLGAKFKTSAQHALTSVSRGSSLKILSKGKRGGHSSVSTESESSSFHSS

## EICADPKQKWVQ [Peptide 3]
HIV strain MN; HIV strain MN, MIP1α 100 ng/ml, SDF1α 100 ng/ml, 72 h, p24gag immunofluorescence
  Effect on HIV infection of THP-1 cells (in words): powerfully inhibited; also recorded: blocked
HIV strain MN; HIV strain MN, differentiated THP-1 (hydrocortisone, PMA, TNFα), grown for 72 h prior to fixation, 12 fields of view
  Inhibition of infection of THP-1 cells (p24gag): more than 80%
HIV strain MN; assayed by immunofluoresence staining, HIV MN, 72 h, p24gag
  Inhibition of CCR5 mediated HIV infection of THP-1 cells: 83 ± 7%
HIV (IIIb)
  Effect on virus replication following HIV exposure (reverse transcriptase activity): no effect
CXCR4
  Effect on binding of gp120:V3(IIIb) to Jurkat cells: no effect
